# ChEMBL document CHEMBL2216752, “Carnitine palmitoyltransferase (CPT) modulators: a medicinal chemistry perspective on 35 years of research” (J Med Chem, 2011)
# Assays:
# [1] = target: T1, Mitochondrial carnitine/acylcarnitine carrier protein (Homo sapiens, UniProt O43772); assay: Inhibition of CACT
# T1 sequence (O43772 whole entry): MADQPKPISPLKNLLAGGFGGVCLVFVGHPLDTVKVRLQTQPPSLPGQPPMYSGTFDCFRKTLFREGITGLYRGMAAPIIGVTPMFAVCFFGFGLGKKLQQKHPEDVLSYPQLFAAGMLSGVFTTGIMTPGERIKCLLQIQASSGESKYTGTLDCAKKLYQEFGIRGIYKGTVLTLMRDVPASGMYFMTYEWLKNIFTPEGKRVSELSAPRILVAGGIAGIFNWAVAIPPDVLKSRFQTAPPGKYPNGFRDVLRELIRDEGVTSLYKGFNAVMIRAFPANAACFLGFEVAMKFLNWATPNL
# [2] = target: T2, Carnitine O-palmitoyltransferase 2, mitochondrial (Rattus norvegicus, UniProt P18886); assay: Inhibition of rat CPT2
# T2 sequence (P18886 whole entry): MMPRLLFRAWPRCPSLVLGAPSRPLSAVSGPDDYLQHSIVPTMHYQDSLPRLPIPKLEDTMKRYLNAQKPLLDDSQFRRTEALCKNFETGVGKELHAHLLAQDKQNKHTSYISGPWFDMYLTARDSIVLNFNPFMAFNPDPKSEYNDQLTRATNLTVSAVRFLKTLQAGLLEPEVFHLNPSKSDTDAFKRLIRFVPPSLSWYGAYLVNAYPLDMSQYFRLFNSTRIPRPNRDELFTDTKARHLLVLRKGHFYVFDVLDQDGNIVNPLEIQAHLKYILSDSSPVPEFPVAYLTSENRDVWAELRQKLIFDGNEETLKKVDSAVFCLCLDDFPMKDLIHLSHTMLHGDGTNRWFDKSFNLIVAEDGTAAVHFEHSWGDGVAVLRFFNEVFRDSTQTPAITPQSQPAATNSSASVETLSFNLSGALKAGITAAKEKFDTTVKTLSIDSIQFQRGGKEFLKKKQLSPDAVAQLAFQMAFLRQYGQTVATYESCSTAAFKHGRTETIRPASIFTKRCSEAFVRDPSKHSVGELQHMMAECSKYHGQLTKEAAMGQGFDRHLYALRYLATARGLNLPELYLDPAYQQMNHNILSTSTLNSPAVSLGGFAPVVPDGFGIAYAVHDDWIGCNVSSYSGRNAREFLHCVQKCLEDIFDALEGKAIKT
# [3] = target: T3, Carnitine O-palmitoyltransferase 1, liver isoform (Homo sapiens, UniProt P50416); assay: Inhibition of human CPT1A
# T3 sequence (P50416 whole entry): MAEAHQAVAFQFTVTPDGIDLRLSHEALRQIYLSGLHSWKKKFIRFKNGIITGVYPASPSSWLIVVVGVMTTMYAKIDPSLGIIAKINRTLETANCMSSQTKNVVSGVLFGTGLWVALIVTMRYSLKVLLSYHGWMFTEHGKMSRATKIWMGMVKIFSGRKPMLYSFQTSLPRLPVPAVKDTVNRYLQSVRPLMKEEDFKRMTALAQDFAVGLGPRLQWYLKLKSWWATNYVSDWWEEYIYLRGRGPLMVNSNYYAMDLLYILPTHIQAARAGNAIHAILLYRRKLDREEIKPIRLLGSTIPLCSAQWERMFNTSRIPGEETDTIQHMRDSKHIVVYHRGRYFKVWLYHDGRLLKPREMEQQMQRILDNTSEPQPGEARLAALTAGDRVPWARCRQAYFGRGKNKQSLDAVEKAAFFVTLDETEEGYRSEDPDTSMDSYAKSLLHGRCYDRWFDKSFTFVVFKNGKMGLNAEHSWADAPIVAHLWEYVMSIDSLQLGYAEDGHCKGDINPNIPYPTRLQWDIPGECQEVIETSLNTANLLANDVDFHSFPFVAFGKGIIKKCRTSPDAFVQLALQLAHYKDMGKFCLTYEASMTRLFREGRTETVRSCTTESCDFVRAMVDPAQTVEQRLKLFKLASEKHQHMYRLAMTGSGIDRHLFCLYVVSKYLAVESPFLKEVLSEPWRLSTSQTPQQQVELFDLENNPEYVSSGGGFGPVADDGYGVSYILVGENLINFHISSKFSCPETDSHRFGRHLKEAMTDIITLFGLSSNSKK
# [4] = target: T4, Carnitine O-palmitoyltransferase 1, muscle isoform (Homo sapiens, UniProt Q92523); assay: Inhibition of human CPT1B
# T4 sequence (Q92523 whole entry): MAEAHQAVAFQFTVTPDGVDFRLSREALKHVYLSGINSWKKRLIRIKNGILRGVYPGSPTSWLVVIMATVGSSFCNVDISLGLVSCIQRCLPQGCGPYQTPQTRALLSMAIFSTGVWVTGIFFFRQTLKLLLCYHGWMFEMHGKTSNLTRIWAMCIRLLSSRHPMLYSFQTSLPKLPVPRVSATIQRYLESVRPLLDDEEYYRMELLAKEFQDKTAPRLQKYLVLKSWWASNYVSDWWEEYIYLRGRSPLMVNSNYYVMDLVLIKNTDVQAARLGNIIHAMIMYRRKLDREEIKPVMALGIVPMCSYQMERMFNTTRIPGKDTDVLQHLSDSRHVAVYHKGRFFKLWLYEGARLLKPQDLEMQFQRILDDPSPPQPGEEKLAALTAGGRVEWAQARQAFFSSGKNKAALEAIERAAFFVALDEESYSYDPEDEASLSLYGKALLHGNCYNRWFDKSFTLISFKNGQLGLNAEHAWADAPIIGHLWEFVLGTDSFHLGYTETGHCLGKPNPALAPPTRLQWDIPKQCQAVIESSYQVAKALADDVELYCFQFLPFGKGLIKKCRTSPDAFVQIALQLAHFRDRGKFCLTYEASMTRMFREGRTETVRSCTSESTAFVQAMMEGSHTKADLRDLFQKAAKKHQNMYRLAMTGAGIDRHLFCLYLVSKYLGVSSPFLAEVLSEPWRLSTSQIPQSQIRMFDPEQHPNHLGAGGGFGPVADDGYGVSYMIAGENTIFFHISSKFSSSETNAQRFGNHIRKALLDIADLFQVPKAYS
# [5] = target: T5, Carnitine O-palmitoyltransferase 2, mitochondrial (Homo sapiens, UniProt P23786); assay: Inhibition of human CPT2
# T5 sequence (P23786 whole entry): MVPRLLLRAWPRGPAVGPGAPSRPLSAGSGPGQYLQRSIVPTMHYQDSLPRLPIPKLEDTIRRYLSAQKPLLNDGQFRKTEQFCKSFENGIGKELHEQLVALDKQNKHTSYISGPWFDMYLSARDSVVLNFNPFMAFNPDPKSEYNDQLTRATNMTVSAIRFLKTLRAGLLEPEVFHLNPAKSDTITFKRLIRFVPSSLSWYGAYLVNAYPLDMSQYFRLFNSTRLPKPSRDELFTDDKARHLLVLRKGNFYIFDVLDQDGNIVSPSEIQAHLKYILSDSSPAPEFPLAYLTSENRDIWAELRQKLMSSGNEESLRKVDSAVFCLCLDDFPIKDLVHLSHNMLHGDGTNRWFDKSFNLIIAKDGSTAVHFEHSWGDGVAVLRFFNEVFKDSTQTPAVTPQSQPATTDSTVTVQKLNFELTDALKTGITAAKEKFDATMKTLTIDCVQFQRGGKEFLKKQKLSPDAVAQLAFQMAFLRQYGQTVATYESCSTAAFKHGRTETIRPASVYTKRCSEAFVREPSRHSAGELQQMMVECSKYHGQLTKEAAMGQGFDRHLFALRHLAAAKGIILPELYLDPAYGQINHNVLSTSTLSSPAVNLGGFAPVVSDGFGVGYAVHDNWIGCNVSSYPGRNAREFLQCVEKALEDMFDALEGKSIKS
# [6] = target: T2, Carnitine O-palmitoyltransferase 2, mitochondrial; assay: Inhibition of rat CPT2 using [3H]carnitine by radiometric assay
# [7] = target: T6, Carnitine O-palmitoyltransferase 1, liver isoform (Rattus norvegicus, UniProt P32198); assay: Inhibition of rat CPT1A using [3H]carnitine by radiometric assay
# T6 sequence (P32198 whole entry): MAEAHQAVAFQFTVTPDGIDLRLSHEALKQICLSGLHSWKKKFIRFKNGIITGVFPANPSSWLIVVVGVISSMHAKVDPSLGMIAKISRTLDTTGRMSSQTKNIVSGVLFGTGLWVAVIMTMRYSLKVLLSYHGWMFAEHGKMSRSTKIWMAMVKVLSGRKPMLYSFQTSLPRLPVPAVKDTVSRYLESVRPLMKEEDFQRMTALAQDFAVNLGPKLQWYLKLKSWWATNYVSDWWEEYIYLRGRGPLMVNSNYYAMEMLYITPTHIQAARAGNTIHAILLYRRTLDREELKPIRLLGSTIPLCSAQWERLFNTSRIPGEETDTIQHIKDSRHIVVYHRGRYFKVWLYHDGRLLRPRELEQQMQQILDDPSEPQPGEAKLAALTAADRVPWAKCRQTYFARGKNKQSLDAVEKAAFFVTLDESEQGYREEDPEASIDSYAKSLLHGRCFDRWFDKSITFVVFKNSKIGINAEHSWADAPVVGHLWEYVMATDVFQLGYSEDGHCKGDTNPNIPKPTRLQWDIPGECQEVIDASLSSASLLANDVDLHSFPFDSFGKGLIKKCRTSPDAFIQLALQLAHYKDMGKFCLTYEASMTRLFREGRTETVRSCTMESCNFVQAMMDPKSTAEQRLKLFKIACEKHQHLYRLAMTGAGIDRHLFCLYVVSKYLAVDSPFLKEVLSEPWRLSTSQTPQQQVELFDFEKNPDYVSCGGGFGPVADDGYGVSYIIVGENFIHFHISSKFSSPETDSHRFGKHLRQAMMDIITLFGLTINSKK
# [8] = target: T3, Carnitine O-palmitoyltransferase 1, liver isoform; assay: Inhibition of human CPT1A expressed in Saccharomyces cerevisiae mitochondria assessed as palmitoylcarnitine by HPLC method
# [9] = Inhibition of human FAO
# [10] = Inhibition of rat FAO
# [11] = target: T3, Carnitine O-palmitoyltransferase 1, liver isoform; assay: Inhibition of CPT1A
# [12] = target: T4, Carnitine O-palmitoyltransferase 1, muscle isoform; assay: Inhibition of CPT1B
structure (smiles),measurement,setting,value
CCCCCCCCCCCCCCCC(=O)O[C@@H](CC(=O)[O-])C[N+](C)(C)C,IC50,[1],35 µM
O=C(COc1ccccc1)N1CCCC[C@@H]1c1nc(-c2ccccn2)cs1,IC50,[2],30.7 µM
same,IC50,[3],0.02 µM
same,IC50,[4],> 100 µM
same,IC50,[5],4.8 µM
O=C(O)c1ccc(NC(=O)c2cccc(NS(=O)(=O)c3ccc(Cl)c(Cl)c3)c2)cc1,IC50,[2],28.5 µM
same,IC50,[4],6.4 µM
CCCCCCCCCCCCCCCC1(O)C[N+](C)(C)CC(CC(=O)[O-])O1 (stereo in doubt; (-)-27),IC50,[6],6.7 µM
same,IC50,[7],15.5 µM
CCCCCc1ccc(S(=O)(=O)NC2(CC(=O)[O-])CCC[N+](C)(C)C2)cc1 (configuration not stated),IC50,[8],< 1 µM
O=C(O)C(=O)c1ccc(OCCOc2ccc3ccccc3c2)s1,IC50,[9],25.5 µM
same,IC50,[2],> 100 µM
same,IC50,[3],2.4 µM
same,IC50,[4],0.16 µM
same,IC50,[5],4.7 µM
same,IC50,[10],> 100 µM
CCCCCCCC[C@H]1OC(=O)C(C)=C1C(=O)O,IC50,[9],77 µM
same,IC50,[10],> 100 µM
O=C(O)C1(C(F)(F)CCCCCOc2ccc(Cl)cc2)CO1 (configuration not stated),IC50,[11],0.25 µM
same,IC50,[12],> 50 µM
CCCCCCCC(=O)O[C@@H](CC(=O)[O-])C[N+](C)(C)C,IC50,[1],35 µM
CCCCCCCCCC(=O)O[C@@H](CC(=O)[O-])C[N+](C)(C)C,IC50,[1],5 µM
O=C(O)[C@@]1(CCCCCCOc2ccccc2)CO1 [DECHLOROETOMOXIR],IC50,[9],1.8 µM
same,IC50,[10],4.4 µM
COc1ccc(Cl)cc1S(=O)(=O)N1CC(C(=O)O)Oc2ccc(C(=O)Nc3cccc(F)c3)cc21 (configuration not stated),IC50,[2],> 100 µM
same,IC50,[4],3.4 µM
same,IC50,[5],> 100 µM
